In this experiment the target is HCV RNA-dependent RNA polymerase NS5B (Δ21) (Hepatitis C virus genotype 1b, UniProt P26663). The experiment can be described thus: Assay for HCV RNA-dependent RNA polymerase activity (SPA, [3H]-GTP incorporation). The settings on record: Δ21 Activity (IC50 μM), 50 nM NS5B (Δ21). The experiment is classed as biochemical. On the procedure: Inhibitory activity of the present compounds against HCV RNA-dependent RNA polymerase was assayed according to the methods disclosed in United States Patent Application US2004/038993, content of which is incorporated herein by reference; and those described in Ferrari, E.; Wright-Minogue, J.; Fang, J. W. S.; Baroudy, B. M.; Lau, J. Y. N.; Hong, Z. J. Virol. 1999, 73, 1649.
Briefly, 50 μl reactions containing 20 mM HEPES (pH 7.3), 7.5 mM DTT, 20 units/ml RNasIN, 0.5 μg/ml biotinylated oligoG12, 5 μg/ml polyC, 5 μM GTP, 20 μCi/ml [^3H]-GTP, 10 mM MgCl2, 60 mM NaCl, 100 μg/ml BSA, and 50 nM NS5B (Δ21) were incubated at room temperature for three hours in 96-well plates with or without test compounds. Assay was terminated by the addition of 50 μl 10 mg/ml streptavidin-coated SPA beads supplemented with 100 mM EDTA, and the incorporation of labeled GTP determined by a TopCount Scintillation Counter. IC50 values were calculated from single experiments using 11 serial 2-fold dilutions (0.05-50 μM), and data were considered reliable only when the IC50 value of a positive internal control was within standard deviation range.

Chain of HCV RNA-dependent RNA polymerase NS5B (Δ21) (P26663 2420-2989, stated change not applied): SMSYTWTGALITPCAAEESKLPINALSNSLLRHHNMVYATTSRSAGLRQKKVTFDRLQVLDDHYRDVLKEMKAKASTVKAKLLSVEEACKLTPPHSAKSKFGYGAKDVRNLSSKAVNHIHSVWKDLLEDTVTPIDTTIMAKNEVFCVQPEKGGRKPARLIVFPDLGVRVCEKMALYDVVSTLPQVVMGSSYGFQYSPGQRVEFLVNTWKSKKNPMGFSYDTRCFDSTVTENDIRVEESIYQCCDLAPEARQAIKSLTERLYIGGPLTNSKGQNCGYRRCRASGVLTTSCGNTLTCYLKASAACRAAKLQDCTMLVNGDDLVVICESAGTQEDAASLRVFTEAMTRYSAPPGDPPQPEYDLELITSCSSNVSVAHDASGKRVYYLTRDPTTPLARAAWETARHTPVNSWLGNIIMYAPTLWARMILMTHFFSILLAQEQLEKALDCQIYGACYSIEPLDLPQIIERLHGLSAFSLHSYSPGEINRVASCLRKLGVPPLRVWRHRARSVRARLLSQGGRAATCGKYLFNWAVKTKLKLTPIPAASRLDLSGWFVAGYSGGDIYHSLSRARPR

The compound `O=C(Cn1nc(NS(=O)(=O)c2ccc(O)c(C(=O)O)c2)cc1C(=O)N[C@H]1CCCC[C@@H]1OCc1ccccc1)N[C@H]1CCCC[C@@H]1OCc1ccccc1` had an IC50 (numeric values) of 0.074 µM.

The compound `O=C(Cn1nc(-c2nnn[nH]2)cc1C(=O)N[C@H]1CCCC[C@@H]1OCc1ccccc1)N[C@H]1CCCC[C@@H]1OCc1ccccc1` gave an IC50 (numeric values) of 0.05 µM.

The compound `O=C(Cn1nc(-c2nnn[nH]2)cc1C(=O)N[C@H]1CCCC[C@@H]1OCc1ccccc1)N[C@H]1CCCC[C@@H]1OCc1ccccc1` (stereo in doubt) [Compound 18, 2-[(2-benzyloxy-cyclohexylcarbamoyl)-methyl]-5-(1H-tetrazol-5-yl)-2H-pyrazole-3-carboxylic acid (2-benzyloxy-cyclohexyl)-amide] returned an IC50 (class symbols) of 0.05 to 0.1 µM.

With `N#Cc1cc(C(=O)N[C@H]2CCCC[C@@H]2OCc2ccccc2)n(CC(=O)N[C@H]2CCCC[C@@H]2OCc2ccccc2)n1` (stereo in doubt) [Compound 187, 2-[(2-benzyloxy-cyclohexylcarbamoyl)-methyl]-5-cyano-2H-pyrazole-3-carboxylic acid (2-benzyloxy-cyclohexyl)-amide], the concentration for half-maximal inhibition (IC50) (class symbols) was > 1 µM.

`Cc1ccc(OCc2ccccc2)c(NC(=O)c2cc(-c3nnn[nH]3)nn2CC(=O)N[C@H]2CCCC[C@@H]2OCc2ccccc2)c1` [Compound 1]: the IC50 (class symbols) is < 0.05 µM.

As to `Cc1ccc(OCC2CCCC2)c(NC(=O)c2cc(C(=O)O)nn2CC(=O)N[C@H]2CCCC[C@@H]2OCc2ccccc2)c1` [Compound 2], the IC50 (class symbols) is < 0.05 µM.

Take `O=C(Cn1nc(C(=O)O)cc1C(=O)Nc1cc(Cl)ccc1OCC1CCCCC1)N[C@H]1CCCC[C@@H]1OCc1ccccc1` [Compound 3]: the IC50 (class symbols) is < 0.05 µM.

On to `Cc1ccc(OCC2CCCCC2)c(NC(=O)c2cc(C(=O)NC#N)nn2CC(=O)N[C@H]2CCCC[C@@H]2OCc2ccccc2)c1` [Compound 4], for which, where the note is “class symbols”, the IC50 is < 0.05 µM.

For `Cc1ccc(OCC2CCCCC2)c(NC(=O)c2cc(C(=O)O)nn2CC(=O)N[C@H]2CCCC[C@@H]2OCc2ccccc2)c1` [Compound 5], the IC50 (class symbols) was < 0.05 µM.

On to `N#CNC(=O)c1cc(C(=O)Nc2ccccc2OCc2ccccc2)n(CC(=O)N[C@H]2CCCC[C@@H]2OCc2ccccc2)n1` [Compound 6], for which, for the setting “class symbols”, the IC50 was < 0.05 µM.

In the case of `C[C@@H](NC(=O)c1cc(C(=O)N[C@H]2CCCC[C@@H]2OCc2ccccc2)n(CC(=O)N[C@H]2CCCC[C@@H]2OCc2ccccc2)n1)c1cccc2ccccc12` [Compound 7], the half-inhibitory concentration (IC50) (class symbols) is < 0.05 µM.

For `Cc1ccc(OCc2ccsc2)c(NC(=O)c2cc(C(=O)O)nn2CC(=O)N[C@H]2CCCC[C@@H]2OCc2ccccc2)c1` [Compound 8], under “class symbols”, the IC50 is < 0.05 µM.

For `Cc1ccc(OCC2CCC2)c(NC(=O)c2cc(C(=O)O)nn2CC(=O)N[C@H]2CCCC[C@@H]2OCc2ccccc2)c1` [Compound 9], under “class symbols”, the concentration for half-maximal inhibition (IC50) was < 0.05 µM.

`O=C(Cn1nc(C(=O)O)cc1C(=O)Nc1ccc(F)cc1OCC1CCCCC1)N[C@H]1CCCC[C@@H]1OCc1ccccc1` [Compound 10]: the IC50 (class symbols) is < 0.05 µM.

With `O=C(Cn1nc(NS(=O)(=O)c2ccc(Cl)cc2)cc1C(=O)N[C@H]1CCCC[C@@H]1OCc1ccccc1)N[C@H]1CCCC[C@@H]1OCc1ccccc1` [Compound 11], where the note is “class symbols”, the IC50 was < 0.05 µM.

Consider `O=C(Cn1nc(C(=O)O)cc1C(=O)Nc1cc(Br)ccc1OCC1CCCCC1)N[C@H]1CCCC[C@@H]1OCc1ccccc1` [Compound 12], for which the IC50 (class symbols) is < 0.05 µM.

With `O=C(Cn1nc(NS(=O)(=O)c2ccc(Br)cc2)cc1C(=O)N[C@H]1CCCC[C@@H]1OCc1ccccc1)N[C@H]1CCCC[C@@H]1OCc1ccccc1` [Compound 13], the IC50 (class symbols) was < 0.05 µM.

For `O=C(Cn1nc(C(=O)O)cc1C(=O)Nc1cc(C(F)(F)F)ccc1OCc1ccccc1)N[C@H]1CCCC[C@@H]1OCc1ccccc1` [Compound 14], the IC50 (class symbols) is < 0.05 µM.

`N#CNC(=O)c1cc(C(=O)N[C@H]2CCCC[C@@H]2OCc2ccccc2)n(CC(=O)N[C@H]2CCCC[C@@H]2OCc2ccccc2)n1` [Compound 15]: the IC50 (class symbols) was < 0.05 µM.

Turning to `COc1cccc(NC(=O)c2cc(C(=O)N[C@H]3CCCC[C@@H]3OCc3ccccc3)n(CC(=O)N[C@H]3CCCC[C@@H]3OCc3ccccc3)n2)c1` [Compound 16], the IC50 (class symbols) is < 0.05 µM.

On to `O=C(Cn1nc(NS(=O)(=O)c2ccc(Br)c(C(=O)O)c2)cc1C(=O)N[C@H]1CCCC[C@@H]1OCc1ccccc1)N[C@H]1CCCC[C@@H]1OCc1ccccc1` [Compound 17], for which the IC50 (class symbols) is < 0.05 µM.

As for `O=C(Cn1nc(NS(=O)(=O)c2ccc(I)cc2)cc1C(=O)N[C@H]1CCCC[C@@H]1OCc1ccccc1)N[C@H]1CCCC[C@@H]1OCc1ccccc1` [Compound 19], the IC50 (class symbols) lay in the range of 0.05 to 0.1 µM.

In the case of `O=C(Cn1nc(C(=O)Nc2nnn[nH]2)cc1C(=O)Nc1ccccc1OCc1ccccc1)N[C@H]1CCCC[C@@H]1OCc1ccccc1` [Compound 20], the IC50 (class symbols) lay within 0.05 to 0.1 µM.

Consider `O=C(Cn1nc(C(=O)NCc2cccc3ccccc23)cc1C(=O)N[C@H]1CCCC[C@@H]1OCc1ccccc1)N[C@H]1CCCC[C@@H]1OCc1ccccc1` [Compound 22], for which the IC50 (class symbols) was in the range of 0.05 to 0.1 µM.

Take `Cc1cc(Oc2ccccc2NC(=O)Cn2nc(C(=O)O)cc2C(=O)N[C@H]2CCCC[C@@H]2OCc2ccccc2)ccc1Cl` [Compound 23]: where the note is “class symbols”, the IC50 lay within 0.05 to 0.1 µM.

For `Cc1ccc(OCc2ccccc2)c(NC(=O)c2nc(C(=O)O)nn2CC(=O)N[C@H]2CCCC[C@@H]2OCc2ccccc2)c1` [Compound 24], under “class symbols”, the IC50 was 0.05 to 0.1 µM.

Compound `O=C(Cn1nc(-c2nnn[nH]2)cc1C(=O)Nc1ccccc1OCc1ccccc1)N[C@H]1CCCC[C@@H]1OCc1ccccc1` [Compound 25] yielded an IC50 (class symbols) of 0.05 to 0.1 µM.

Regarding `O=C(Cn1nc(NS(=O)(=O)C(F)(F)F)cc1C(=O)N[C@H]1CCCC[C@@H]1OCc1ccccc1)N[C@H]1CCCC[C@@H]1OCc1ccccc1` [Compound 26], the IC50 (class symbols) was 0.05 to 0.1 µM.

Consider `C[C@H](NC(=O)c1cc(C(=O)N[C@H]2CCCC[C@@H]2OCc2ccccc2)n(CC(=O)N[C@H]2CCCC[C@@H]2OCc2ccccc2)n1)c1cccc2ccccc12` [Compound 27], for which the IC50 (class symbols) lay within 0.05 to 0.1 µM.

`COc1ccc(CNC(=O)c2cc(C(=O)N[C@H]3CCCC[C@@H]3OCc3ccccc3)n(CC(=O)N[C@H]3CCCC[C@@H]3OCc3ccccc3)n2)c(OC)c1` [Compound 28] displayed a concentration for half-maximal inhibition (IC50) (class symbols) of 0.05 to 0.1 µM.

Under “class symbols”, `COc1ccc(NC(=O)c2cc(C(=O)Nc3ccccc3OCc3ccccc3)n(CC(=O)N[C@H]3CCCC[C@@H]3OCc3ccccc3)n2)cc1` [Compound 29] gave an IC50 of 0.05 to 0.1 µM.

For the compound `O=C(Cn1nc(C(=O)O)cc1C(=O)Nc1ccc(F)cc1OCC1CCCCC1)N[C@H]1CCCC[C@@H]1OCc1ccccc1` [Compound 30], the IC50 (class symbols) lay within 0.05 to 0.1 µM.

The compound `O=C(Cn1nc(NS(=O)(=O)c2cccc(F)c2)cc1C(=O)N[C@H]1CCCC[C@@H]1OCc1ccccc1)N[C@H]1CCCC[C@@H]1OCc1ccccc1` [Compound 31] displayed an IC50 (class symbols) of 0.05 to 0.1 µM.

With `O=C(Cn1nc(NS(=O)(=O)c2ccccc2Br)cc1C(=O)N[C@H]1CCCC[C@@H]1OCc1ccccc1)N[C@H]1CCCC[C@@H]1OCc1ccccc1` [Compound 32], under “class symbols”, the IC50 was in the range of 0.05 to 0.1 µM.

Where the note is “class symbols”, `O=C(Cn1nc(NS(=O)(=O)c2ccc3ccccc3c2)cc1C(=O)N[C@H]1CCCC[C@@H]1OCc1ccccc1)N[C@H]1CCCC[C@@H]1OCc1ccccc1` [Compound 33] showed an IC50 of 0.05 to 0.1 µM.

Consider `Cc1ccc(OCC2CCCC2)c(NC(=O)Cn2nc(C(=O)O)cc2C(=O)N[C@H]2CCCC[C@@H]2OCc2ccccc2)c1` [Compound 34], for which the IC50 (class symbols) is 0.05 to 0.1 µM.

For `O=C(Cn1nc(NS(=O)(=O)c2ccc(F)cc2)cc1C(=O)N[C@H]1CCCC[C@@H]1OCc1ccccc1)N[C@H]1CCCC[C@@H]1OCc1ccccc1` [Compound 35], where the note is “class symbols”, the IC50 was in the range of 0.05 to 0.1 µM.

Regarding `O=C(Cn1nc(NS(=O)(=O)c2cccc(Br)c2)cc1C(=O)N[C@H]1CCCC[C@@H]1OCc1ccccc1)N[C@H]1CCCC[C@@H]1OCc1ccccc1` [Compound 36], the IC50 (class symbols) lay within 0.05 to 0.1 µM.

The compound `O=C(Cn1nc(NS(=O)(=O)c2ccccc2F)cc1C(=O)N[C@H]1CCCC[C@@H]1OCc1ccccc1)N[C@H]1CCCC[C@@H]1OCc1ccccc1` [Compound 37] came in with an IC50 (class symbols) of 0.05 to 0.1 µM.

In the case of `O=C(Cn1nc(NS(=O)(=O)c2ccc(Cl)s2)cc1C(=O)N[C@H]1CCCC[C@@H]1OCc1ccccc1)N[C@H]1CCCC[C@@H]1OCc1ccccc1` [Compound 38], the IC50 (class symbols) fell in the range of 0.05 to 0.1 µM.

For the compound `O=C(Cn1nc(C(=O)O)cc1C(=O)Nc1ccccc1OCc1ccccc1)N[C@H]1CCCC[C@@H]1OCc1ccccc1` [Compound 39], the IC50 (class symbols) was in the range of 0.05 to 0.1 µM.

Where the note is “class symbols”, `COc1ccc(CNC(=O)c2cc(C(=O)N[C@H]3CCCC[C@@H]3OCc3ccccc3)n(CC(=O)N[C@H]3CCCC[C@@H]3OCc3ccccc3)n2)cc1` [Compound 40] displayed an IC50 of 0.05 to 0.1 µM.

Under “class symbols”, `COc1ccc(S(=O)(=O)Nc2cc(C(=O)N[C@H]3CCCC[C@@H]3OCc3ccccc3)n(CC(=O)N[C@H]3CCCC[C@@H]3OCc3ccccc3)n2)cc1` [Compound 41] registered an IC50 of 0.05 to 0.1 µM.

In the case of `N#Cc1ccc(S(=O)(=O)Nc2cc(C(=O)N[C@H]3CCCC[C@@H]3OCc3ccccc3)n(CC(=O)N[C@H]3CCCC[C@@H]3OCc3ccccc3)n2)cc1` [Compound 42], the IC50 (class symbols) was in the range of 0.05 to 0.1 µM.

As for `Cc1ccc(OCC2CCC2)c(NC(=O)Cn2nc(C(=O)O)cc2C(=O)N[C@H]2CCCC[C@@H]2OCc2ccccc2)c1` [Compound 43], the IC50 (class symbols) was 0.05 to 0.1 µM.

As to `Cc1ccc(OCc2ccccc2)c(NC(=O)c2cc(NS(=O)(=O)c3ccc(Cl)cc3)nn2CC(=O)N[C@H]2CCCC[C@@H]2OCc2ccccc2)c1` [Compound 44], the IC50 (class symbols) lay in the range of 0.05 to 0.1 µM.

As usually defined, the IC50 is the concentration that inhibits the measured activity by half. A lower IC50 goes with higher potency.
